# Test results published in patent US20230212202A1, “TREATMENT OF MGMT DEFICIENT CANCER WITH 2-FLUOROETHYL-SUBSTITUTED NITROSOUREAS AND OTHER COMPOUNDS” (YALE UNIVERSITY, priority 2021, published 2023).
# Legend:
# [1] = system: PEO4 (BRCA2+) and PEO1 (BRCA2-/-) cells; test: Short-term viability assay with or without O6BG; type: cell-based, human
# [2] = system: LN229 MGMT-/MMR+ and MGMT-/MMR- flank tumors; test: Flank tumor second study: regimens, schedules and routes; type: in vivo, mouse; conditions: 5, 15, 25 mg/kg; MWF × 3 weeks, M-F × 1 week; PO, IP
# Text: In a second study, mice were randomized and administered either KL-50 (4a) or vehicle (10% cyclodextrin) by oral gavage or intraperitoneal injection on either M-F × 1 or MWF × 3 cycles at 5, 15, or 25 mgs/kg. Caliper measurements were obtained during the dosing period and at least two weeks following treatment. Mice were euthanized if body weight loss exceeded 20% or if tumor volume increased to greater than 2000 mm^3.
# [3] = system: LN229 MGMT-/MMR- intracranial tumors; test: Intracranial tumor model; type: in vivo, mouse; conditions: 25 mg/kg IP M-F × 1 week
structure (smiles),measurement,setting,value
NC(=O)c1ncn2c(=O)n(CCF)nnc12 [KL-50],sensitivity of BRCA2-/- cells,[1],BRCA2 loss enhanced the toxicity
same,therapeutic index (TI),[1]; PEO1/4 model,62 fold
same,efficacy and toxicity across regimens,[2],effective and non-toxic
same,intracranial tumor growth,[3],effective
